Assay results: patent EP2128158A1, “Heterocyclic cyclopropyl-substituted FXR binding compounds” (Phenex Pharmaceuticals AG, priority 2008, dated 2009)
Where two headings read alike, the source gives them in different places.

What was measured:
[1] = target: T1, FXR ligand binding domain (Homo sapiens, UniProt Q96RI1); experiment: Mammalian one hybrid (M1H) assay, Gal4 promoter driven transactivation in HEK293 cells; format: cell-based; details: Gal4-FXR LBD, 16 hours incubation, dual luciferase, read-out: M1H assay EC50 (±sd)
T1 construct: expressed in transfected cells; host or cells: HEK293 (DSMZ), transient transfection, vector pCMV-BD
T1 sequence (Q96RI1 187-472 isoform Q96RI1-2): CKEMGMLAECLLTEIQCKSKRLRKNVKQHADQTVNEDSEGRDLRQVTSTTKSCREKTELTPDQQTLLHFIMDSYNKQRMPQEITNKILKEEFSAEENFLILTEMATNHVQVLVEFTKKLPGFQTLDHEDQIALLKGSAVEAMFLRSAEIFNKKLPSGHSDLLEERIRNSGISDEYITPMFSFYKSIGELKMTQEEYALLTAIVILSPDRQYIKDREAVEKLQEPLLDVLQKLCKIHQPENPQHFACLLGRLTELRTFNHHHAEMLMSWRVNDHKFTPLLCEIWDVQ
Method: Determination of a ligand mediated Gal4 promoter driven transactivation to quantify ligand binding mediated activation of FXR was performed as follows: The cDNA part encoding the FXR ligand binding domain was cloned into vector pCMV-BD (Stratagene) as a fusion to the yeast GAL4 DNA binding domain under the control of the CMV promoter. The amino acid boundaries of the ligand binding domain were amino acids 187-472 of Database entry NM_005123 (RefSeq). The plasmid pFR-Luc (Stratagene) was used as the reporter plasmid, containing a synthetic promoter with five tandem repeats of the yeast GAL4 binding sites, driving the expression of the Photinus pyralis (American firefly) luciferase gene as the reporter gene. In order to improve experimental accuracy the plasmid pRL-CMV (Promega) was cotransfected. pRL-CMV contains the constitutive CMV promoter, controlling the expression of the Renilla reniformis luciferase. All Gal4 reporter gene assays were done in HEK293 cells (obtained from DSMZ, Braunschweig, Germany) grown in MEM with L-Glutamine and Earle's BSS supplemented with 10% fetal bovine serum, 0.1 mM nonessential amino acids, 1mM sodium pyruvate, and 100units Penicilin/[…] per ml at 37°C in 5% CO2. Medium and supplements were obtained from Invitrogen. For the assay, 5x10^5 cells were plated per well in 96well plates in 100µl per well MEM without Phenol Red and L-Glutamine and with Earle's BSS supplemented with 10% charcoal/dextran treated FBS (HyClone, South Logan, Utah), 0.1 mM nonessential amino acids, 2 mM glutamine, 1 mM sodium pyruvate, and 100 units Penicilin/[…] per ml, incubated at 37 °C in 5% CO2. The following day the cells were >90% confluence. Medium was removed and cells were transiently transfected using 20µl per well of a OptiMEM - polyethylene-imine-based transfection-reagent (OptiMEM, Invitrogen; Polyethyleneimine, Aldrich Cat No. 40,827-7) including the three plasmids described above. MEM with the same composition as used for plating cells was added 2-4 hours after addition of transfection mixture. Then compound stocks, prediluted in MEM were added (final vehicle concentration not exceeding 0.1 %). Cells were incubated for additional 16 hours before firefly and renilla luciferase activities were measured sequentially in the same cell extract using a Dual-Light-Luciferase-Assay system (Dyer et al., Anal Biochem 2000, (282), 158-161). All experiments were done in triplicates.

[2] = target: T2, human FXR alpha ligand binding domain (Homo sapiens, UniProt Q96RI1); experiment: FRET activity assay (ligand mediated FXR-LBD / SRC-1 cofactor peptide interaction, LANCE); format: biochemical
T2 construct: made in house; host or cells: E. coli BL21(DE3), vector pDEST15
T2 sequence (Q96RI1 187-472 isoform Q96RI1-2): T1 sequence (Q96RI1 187-472 isoform Q96RI1-2)
Method: Determination of a ligand mediated cofactor peptide interaction to quantify ligand binding to the nuclear receptor FXR was performed as follows: Preparation of human FXR alpha ligand binding domain: The human FXRalpha LBD was expressed in E. coli strain BL21(DE3) as an N-terminally GST tagged fusion protein. The DNA encoding the FXR ligand binding domain was cloned into vector pDEST15 (Invitrogen). Expression was under control of an IPTG inducible T7 promoter. The amino acid boundaries of the ligand binding domain were amino acids 187-472 of Database entry NM_005123 (RefSeq). Expression and purification of the FXR-LBD:
An overnight preculture of a transformed E.coli strain was diluted 1:20 in LB-Ampicillin medium and grown at 30°C to an optical density of OD600=0.4-0.6. Gene expression was then induced by addition of 0.5 mM IPTG. Cells were incubated an additional 6h at 30°C, 180 rpm. Cells were collected by centrifugation (7000 x g, 7 min, room temperature). Per liter of original cell culture, cells were resuspended in 10 ml lysis buffer (50 mM Glucose, 50 mM Tris pH 7.9, 1 mM EDTA and 4 mg/ml lysozyme) and left on ice for 30 min. Cells were then subjected to sonication and cell debris removed via centrifugation (22000 x g, 30 min, 4°C). Per 10 ml of supernatant 0.5 ml prewashed Glutathione 4B sepharose slurry (Qiagen) was added and the suspension kept slowly rotating for 1 h at 4°C. Glutathione 4B sepharose beads were pelleted by centrifugation (2000 g, 15 sec, 4°C) and washed twice in wash buffer (25 mM Tris, 50mM KCl, 4 mM MgCl2 and 1M NaCl). The pellet was resuspended in 3 ml elution buffer per liter of original culture (elution buffer: 20 mM Tris, 60 mM KCI, 5 mM MgCl2 and 80 mM glutathione added immediately prior to use as powder). The suspension was left rotating for 15 min at 4°C, the beads pelleted and eluted again with half the volume of elution buffer than the first time. The eluates were pooled and dialysed overnight in 20 mM Hepes buffer (pH 7.5) containing 60 mM KCI, 5 mM MgCl2 as well as 1 mM dithiothreitol and 10% (v/v) glycerol. The protein was analysed by SDS-Page.
The method measures the ability of putative ligands to modulate the interaction between the purified bacterial expressed FXR ligand binding domain (LBD) and a synthetic biotinylated peptide based on residues 676-700 of SRC-1 (LCD2, 676-700). The sequence of the peptide used was B-[…]-COOH where the N-terminus was biotinylated (B). The ligand binding domain (LBD) of FXR was expressed as fusion protein with GST in BL-21 cells using the vector pDEST15. Cells were lysed by sonication, and the fusion proteins purified over glutathione sepharose (Pharmacia) according to the manufacturers instructions. […] For ease of handling and reduction of background from compound fluorescence LANCE technology makes use of generic fluorophore labels and time resolved detection Assays were done in a final volume of 2 5µl in a 384 well plate, in a Tris-based buffer (20 mM Tris-HCl pH 7,5; 60 mM KCI, 5 mM MgCl2; 35 ng/µl BSA), containing 20-60 ng/well recombinantly expressed FXR-LBD fused to GST, 200-600 nM N-terminally biotinylated peptide, representing SRC1 aminoacids 676-700, 200 ng/well Streptavidin-xIAPC conjugate(Prozyme) and 6-10 ng/well Eu W1024 - antiGST (Perkin Elmer). […] The LANCE signal was detected by a Perkin Elmer VICTOR2VTM Multilabel Counter The results were visualized by plotting the ratio between the emitted light at 665 nm and 615 nm. […]

full length human FXR = target: T3, full length human FXR (Homo sapiens, UniProt Q96RI1); experiment: Direct reporter (DR) gene assay in stably transfected HEK293 cells (D2IV3), luciferase; format: cell-based
T3 construct: The full length human FXR (NM_005123) was cloned into pTRexDest30; expressed in transfected cells
T3 sequence (Q96RI1 1-472 isoform Q96RI1-2): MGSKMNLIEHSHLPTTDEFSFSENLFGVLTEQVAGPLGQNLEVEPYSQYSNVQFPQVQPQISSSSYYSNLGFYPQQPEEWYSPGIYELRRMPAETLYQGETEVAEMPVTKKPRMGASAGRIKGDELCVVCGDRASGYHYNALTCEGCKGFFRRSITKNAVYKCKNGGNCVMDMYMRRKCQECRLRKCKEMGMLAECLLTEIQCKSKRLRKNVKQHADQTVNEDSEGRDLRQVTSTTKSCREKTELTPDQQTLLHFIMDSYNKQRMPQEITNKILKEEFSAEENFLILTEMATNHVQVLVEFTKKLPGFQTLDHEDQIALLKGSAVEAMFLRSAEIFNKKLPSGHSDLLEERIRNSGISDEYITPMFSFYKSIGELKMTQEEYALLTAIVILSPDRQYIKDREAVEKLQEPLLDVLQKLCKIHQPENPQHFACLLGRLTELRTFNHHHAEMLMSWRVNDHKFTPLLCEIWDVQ
Source text: In the direct reporter gene assay, HEK293 cells, obtained from DSMZ (German Collection of Microorganisms and Cell Cultures, Braunschweig, Germany) were stably transfected with pTRexDest30 (Invitrogen) derivative pTRexDest30-hFXR and pGL2promoter (Promega) derivative pGL2promoter-2xIBABP-RE. The full length human FXR (NM_005123) was cloned into pTRexDest30 according to the manufacturer protocol for the Gateway system (Invitrogen). The FXR response elements cccaGGGTGAaTAACCTcggggctctgtccctccaatcccaGGGTGAaTAACCTcggg were derived from the human IBABP-P promoter (Grober et al. 1999, JBC, 174, pp.29749-29754) and cloned into pGL2promoter. […] For the direct reporter gene assays, D2IV3 cells were grown in MEM with L-Glutamine and Earle's BSS supplemented with 10% fetal bovine serum, 0.1mM nonessential amino acids, 1mM sodium pyruvate, and 100units Penicilin/[…] per ml at 37°C in 5% CO2. Medium and supplements were obtained from Invitrogen. For the assay, 5x10^5 cells were plated per well in 96well plates in 100µl per well minimum essential medium (same composition as above) incubated at 37°C in 5% CO2. The following day the cells were >90% confluence. Compounds were prediluted in MEM and added at different concentrations to the cells with the final DMSO vehicle concentration not exceeding 0.1%. Cells were incubated for additional 16 hours before firefly luciferase activity was measured. All experiments were done in triplicates.

[3] = GST-tagged FXR-LBD, biotinylated SRC-1 peptide 676-700; read-out: FRET assay EC50 (±sd)
[4] = 16 hours incubation, firefly luciferase, read-out: DR assay EC50 (±sd)

| Structure (SMILES) | EC50 [1] | EC50 [2, 3] | EC50 (full length human FXR; [4]) | EC50 ([2]; read-out: FRET assay EC50 (±sd); GST-tagged FXR-LBD, biotinylated SRC-1 peptide 676-700) | EC50 (full length human FXR; read-out: DR assay EC50 (±sd), 16 hours incubation, firefly luciferase) |
| --- | --- | --- | --- | --- | --- |
| CN(Cc1ccc(C(=O)O)cc1)c1ccc(OCc2c(-c3c(Cl)cccc3Cl)noc2C2CC2)nc1C(F)(F)F [Example 1, 4-{[(6-((5-Cyclopropyl-3-(2,6-dichlorophenyl)isoxazol-4-yl)methoxy)-2-(trifluoromethyl)pyridin-3-yl)(methyl)amino]methyl}benzoic acid] | 56 nM | – | – | 8.4 nM | 6.4 nM |
| CC(C)c1onc(-c2c(Cl)cccc2Cl)c1COc1ccc(N(C)Cc2ccc(C(=O)O)cc2)c(C(F)(F)F)n1 [Compound B, 4-(((6-((3-(2,6-Dichlorophenyl)-5-isopropylisoxazol-4-yl)methoxy)-2-(trifluoromethyl)pyridin-3-yl)(methyl)amino)methyl)benzoic acid, reference compound] | 95 nM | 17 nM | 13 nM | – | – |
| CC(C)c1onc(-c2c(Cl)cccc2Cl)c1COc1ccc(N(C)Cc2cccc(C(=O)O)c2)c(C(F)(F)F)n1 [Compound C, 3-(((6-((3-(2,6-Dichlorophenyl)-5-isopropylisoxazol-4-yl)methoxy)-2-(trifluoromethyl)pyridin-3-yl)(methyl)amino)methyl)benzoic acid, reference compound] | 186 nM | 11 nM | 5.7 nM | – | – |

Further lines, with some results ahead:

| EC50 [1] | EC50 [2, 3] | EC50 (full length human FXR; [4]) | Structure (SMILES) | EC50 ([2]; read-out: FRET assay EC50 (±sd); GST-tagged FXR-LBD, biotinylated SRC-1 peptide 676-700) | EC50 (full length human FXR; read-out: DR assay EC50 (±sd), 16 hours incubation, firefly luciferase) |
| --- | --- | --- | --- | --- | --- |
| 40 nM | 7.7 nM | 6 nM | Cc1cc(CN(C)c2ccc(OCc3c(-c4c(Cl)cccc4Cl)noc3C3CC3)nc2C(F)(F)F)ccc1C(=O)O [Example 2, 4-{[(6-((5-Cyclopropyl-3-(2,6-dichlorophenyl)isoxazol-4-yl)methoxy)-2-(trifluoromethyl)pyridin-3-yl)(methyl)amino]methyl}-2-methylbenzoic acid] | – | – |
| 55 nM | 11.5 nM | 6 nM | Cc1cc(CN(C)c2ccc(OCc3c(-c4c(Cl)cccc4Cl)noc3C3CC3)nc2C(F)(F)F)cc(C)c1C(=O)O [Example 3, 4-{[(6-((5-Cyclopropyl-3-(2,6-dichlorophenyl)isoxazol-4-yl)methoxy)-2-(trifluoromethyl)pyridin-3-yl)(methyl)amino]methyl}-2,6-dimethylbenzoic acid] | – | – |
